In test [1] the target is T1, HPK1 protein (Mus musculus, UniProt P70218).
T1 construct: the CD3+ T cell population was isolated from spleenocytes of mice; endogenous in cells; host or cells: primary mouse splenic CD3+ (pan) T cells
T1 sequence (P70218 1-827): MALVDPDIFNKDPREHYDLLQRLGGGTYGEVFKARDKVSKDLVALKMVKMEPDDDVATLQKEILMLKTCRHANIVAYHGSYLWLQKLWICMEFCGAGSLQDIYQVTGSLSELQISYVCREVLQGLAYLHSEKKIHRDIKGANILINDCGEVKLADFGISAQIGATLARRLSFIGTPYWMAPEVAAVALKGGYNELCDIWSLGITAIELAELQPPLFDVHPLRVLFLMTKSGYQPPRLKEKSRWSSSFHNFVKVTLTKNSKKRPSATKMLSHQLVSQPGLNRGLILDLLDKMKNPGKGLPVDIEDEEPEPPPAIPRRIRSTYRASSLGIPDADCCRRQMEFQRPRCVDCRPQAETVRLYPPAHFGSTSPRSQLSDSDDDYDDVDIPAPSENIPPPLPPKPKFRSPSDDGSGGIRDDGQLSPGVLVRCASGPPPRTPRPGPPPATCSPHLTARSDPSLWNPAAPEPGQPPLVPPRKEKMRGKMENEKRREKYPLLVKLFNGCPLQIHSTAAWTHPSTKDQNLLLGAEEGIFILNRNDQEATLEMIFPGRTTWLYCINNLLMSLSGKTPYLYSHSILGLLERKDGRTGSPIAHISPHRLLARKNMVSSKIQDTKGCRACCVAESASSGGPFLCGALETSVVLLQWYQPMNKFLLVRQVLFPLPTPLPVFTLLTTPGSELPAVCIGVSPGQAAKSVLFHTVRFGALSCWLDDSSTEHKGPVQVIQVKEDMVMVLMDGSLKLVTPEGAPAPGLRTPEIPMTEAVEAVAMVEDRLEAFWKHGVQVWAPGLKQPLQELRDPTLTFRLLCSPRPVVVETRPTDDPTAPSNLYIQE
Description: HPK1 protein degradation in mouse pan T cell (western blot). The following applies: 18 h incubation. The format is cell-based. On the procedure: HPK1 protein degradation in mouse pan T cell: the CD3+ T cell population was isolated from spleenocytes of mice by using Pan T cell isolation kit from Miltenyi Biotec (130-095-130) following manufacture's instruction. The isolated T cells were then incubated with a variety of concentrations of compound. After incubation for 18 h, the cells were collected and lysed. The protein concentration was determined by BCA protein assay kit from Thermo (23227). The HPK1 protein level was determined by western blots, using anti-human HPK1 polyclonal antibody from CST (4472). Proteins were loaded into each well of the pre-casting gels and subjected to electrophoretic separation by SDS-PAGE. The protein resolved by SDS-PAGE were transferred to PVDF, blocked by 5% skim milk and probed with anti-human HPK1 antibody or β-actin antibody from CST (3700S), using following standard western blotting procedure.
In general terms: Immunoblotting shows a protein as a band on a membrane.

In test [2] the target is T2, HPK1 protein (Homo sapiens, UniProt Q92918).
T2 construct: purchased Signal Chem M23-11G-10
T2 sequence (Q92918 1-346 limits assumed): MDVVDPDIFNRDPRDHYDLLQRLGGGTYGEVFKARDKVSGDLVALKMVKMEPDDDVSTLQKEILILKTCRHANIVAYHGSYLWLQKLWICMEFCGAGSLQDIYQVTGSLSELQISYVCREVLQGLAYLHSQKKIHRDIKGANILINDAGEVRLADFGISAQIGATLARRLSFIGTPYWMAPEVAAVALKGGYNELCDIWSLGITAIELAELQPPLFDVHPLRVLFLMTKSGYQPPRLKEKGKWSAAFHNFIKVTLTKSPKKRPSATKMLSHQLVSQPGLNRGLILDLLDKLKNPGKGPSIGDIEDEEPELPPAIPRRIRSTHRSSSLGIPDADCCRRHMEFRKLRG
The test can be described thus: HPK1 enzyme inhibition assay (ADP-Glo). The format is biochemical. The conditions noted are these: MBP substrate, ATP, ADP-Glo readout. The protocol: The compound was dissolved in 100% DMSO at the concentration of 10 mM. The HPK1 protein was purchased from Signal Chem (M23-11G-10). 2.5 μL per well of 2×HPK1 protein was added to assay plate containing the test compound, centrifuged at 1500 rpm for 1 minute, and then incubated at 25° C. for 60 minutes. MBP protein was purchased from Signal Chem (M42-51N) and ATP was purchased from Promega (V9102). The two were added 2.5 μL per well mixture of 2×MBP (0.2 ug/ul) and ATP (20 μM), centrifuged at 1500 rpm for 1 minute, then incubated at 25° C. for 60 minutes. Then added 5 μL of ADP-Glo from Promega (V9102) to the assay plate and depleted the unconsumed ATP for 60 minutes. Then centrifuged at 1500 rpm for 1 minute and incubated at 25° C. for 60 minutes. Finally, 10 μL of the kinase assay reagent from Promega (V9102) was added to the assay plate to convert ADP to ATP, centrifuged at 1500 rpm for 1 minute, incubate at 25° C. for 40 minutes. After 40 minutes incubation, the […] was determined. Based on the results, the IC50 value of the compound was calculated.

The source of these data is patent publication US20240368159A1, “HPK1 DEGRADERS, COMPOSITIONS COMPRISING THE HPK1 DEGRADER, AND METHODS OF USING THE SAME” (BIOFRONT LTD, priority 2021, published 2024).

Structures are written as SMILES.

With `CCc1c[nH]c2ncc(-c3cccc(N4CCN(CCCCNc5ccc6c(c5)C(=O)N(C5CCC(=O)NC5=O)C6=O)CC4=O)c3)c(Cl)c12` (centres unmarked) [Example 59], on HPK1 protein [1], the Dmax came to 60%. For the same compound, the IC50 on HPK1 protein [2] lay within 10 to 100 nM. As to `O=C1CCC(N2Cc3cc(N4CCC(CCN5CCN(c6cccc(-c7cnc8[nH]cc(C9CC9)c8c7Cl)c6)C(=O)C5)CC4)c(F)cc3C2=O)C(=O)N1` (centres unmarked) [Example 62, 3-(5-(4-(2-(4-(3-(4-chloro-3-cyclopropyl-1H-pyrrolo[2,3-b]pyridin-5-yl)phenyl)-3-oxopiperazin-1-yl)ethyl)piperidin-1-yl)-6-fluoro-1-oxoisoindolin-2-yl)piperidine-2,6-dione], the Dmax on HPK1 protein [1] amounted to 95%. At HPK1 protein [2], this compound displayed an IC50 of 10 to 100 nM. As to `CCc1c[nH]c2ncc(-c3cccc(N4CCN(CCOCCN5CCN(c6cc7c(cc6F)C(=O)N(C6CCC(=O)NC6=O)C7=O)CC5)CC4=O)c3)c(Cl)c12` (centres unmarked) [Example 33], at HPK1 protein [1], the greatest degradation seen (Dmax) was determined as 60%. Further, the IC50 on HPK1 protein [2] was in the range of 10 to 100 nM. `CCc1c[nH]c2ncc(-c3cccc(N4CCN(CC(=O)N5CCN(c6cc7c(cc6F)C(=O)N(C6CCC(=O)NC6=O)C7=O)CC5)CC4=O)c3)c(Cl)c12` (centres unmarked) [Example 29, 5-(4-(2-(4-(3-(4-chloro-3-ethyl-1H-pyrrolo[2,3-b]pyridin-5-yl)phenyl)-3-oxopiperazin-1-yl)acetyl)piperazin-1-yl)-2-(2,6-dioxopiperidin-3-yl)-6-fluoroisoindoline-1,3-dione]: the Dmax on HPK1 protein [1] is 80%. This compound also gave an IC50 against HPK1 protein [2] of 10 to 100 nM.

Take `O=C1CCC(N2Cc3cc(N4CCC(OCC(=O)N5CCN(c6cccc(-c7cnc8[nH]cc(C#Cc9ccccn9)c8c7Cl)c6)C(=O)C5)CC4)ccc3C2=O)C(=O)N1` (centres unmarked) [Example 57, 3-(5-(4-(2-(4-(3-(4-chloro-3-(pyridin-2-ylethynyl)-1H-pyrrolo[2,3-b]pyridin-5-yl)phenyl)-3-oxopiperazin-1-yl)-2-oxoethoxy)piperidin-1-yl)-1-oxoisoindolin-2-yl)piperidine-2,6-dione]: the greatest degradation seen (Dmax) on HPK1 protein [1] worked out at 0%. The IC50 against HPK1 protein [2] is 100 to 1000 nM. At HPK1 protein [1], `O=C1CCC(c2ccc(N3CCN(CCCN4CCN(c5cccc(-c6cnc7[nH]cc(C8CC8)c7c6Cl)c5)C(=O)C4)CC3)cc2)C(=O)N1` (centres unmarked) [Example 75, 3-(4-(4-(3-(4-(3-(4-chloro-3-cyclopropyl-1H-pyrrolo[2,3-b]pyridin-5-yl)phenyl)-3-oxopiperazin-1-yl)propyl)piperazin-1-yl)phenyl)piperidine-2,6-dione] returned a Dmax of 55%. In addition, the 50% inhibitory concentration (IC50) at HPK1 protein [2] was ≤ 10 nM. `O=C1CCC(N2Cc3cc(F)c(N4CCC(CCN5CCN(c6cccc(-c7cnc8[nH]cc(C9CC9)c8c7Cl)c6)C(=O)C5)CC4)cc3C2=O)C(=O)N1` (centres unmarked) [Example 61] registered a maximal degradation (Dmax) on HPK1 protein [1] of 50%. The same compound gave an IC50 against HPK1 protein [2] of 100 to 1000 nM. Turning to `CCc1c[nH]c2ncc(-c3cccc(N4CCN(CCC(=O)N5CCN(c6ccc7c(c6)C(=O)N(C6CCC(=O)NC6=O)C7=O)CC5)CC4=O)c3)c(Cl)c12` (centres unmarked) [Example 24], the greatest degradation seen (Dmax) on HPK1 protein [1] stood at 91%. This compound came in with an IC50 at HPK1 protein [2] of 10 to 100 nM.

On HPK1 protein [1], `CCc1c[nH]c2ncc(-c3cccc(N4CCN(CCCN5CCN(c6ccc7c(c6)C(=O)N(C6CCC(=O)NC6=O)C7=O)CC5)CC4=O)c3)c(Cl)c12` (centres unmarked) [Example 27] showed a maximal degradation (Dmax) of 95%. The compound also had a half-inhibitory concentration (IC50) against HPK1 protein [2] of 10 to 100 nM. At HPK1 protein [2], `O=C1CCC(N2C(=O)c3ccc(CN4CCC(OC(=O)N5CCN(c6cccc(-c7cnc8[nH]cc(C9CC9)c8c7Cl)c6)C(=O)C5)CC4)cc3C2=O)C(=O)N1` (centres unmarked) [Example 94, 1-((2-(2,6-dioxopiperidin-3-yl)-1,3-dioxoisoindolin-5-yl)methyl)piperidin-4-yl 4-(3-(4-chloro-3-cyclopropyl-1H-pyrrolo[2,3-b]pyridin-5-yl)phenyl)-3-oxopiperazine-1-carboxylate] gave a concentration for half-maximal inhibition (IC50) of 10 to 100 nM.

`CCc1c[nH]c2ncc(-c3cccc(N4CCN(C(=O)COC5CCN(c6cccc7c6C(=O)N(C6CCC(=O)NC6=O)C7=O)CC5)CC4=O)c3)c(Cl)c12` (centres unmarked) [Example 17, 4-(4-(2-(4-(3-(4-chloro-3-ethyl-1H-pyrrolo[2,3-b]pyridin-5-yl)phenyl)-3-oxopiperazin-1-yl)-2-oxoethoxy)piperidin-1-yl)-2-(2,6-dioxopiperidin-3-yl)isoindoline-1,3-dione] yielded a half-inhibitory concentration (IC50) on HPK1 protein [2] of 100 to 1000 nM. Same read-out and setting: the result for `CCc1c[nH]c2ncc(-c3cccc(N4CCN(CC5CN(c6ccc7c(c6)C(=O)N(C6CCC(=O)NC6=O)C7=O)C5)CC4=O)c3)c(Cl)c12` (centres unmarked) [Example 89] reads 10 to 100 nM.

With `CCc1c[nH]c2ncc(-c3cccc(N4CCN(C(=O)CCCCCCOc5cccc6c5CN(C5CCC(=O)NC5=O)C6=O)CC4=O)c3)c(Cl)c12` (centres unmarked) [Example 6, 3-(4-((7-(4-(3-(4-chloro-3-ethyl-1H-pyrrolo[2,3-b]pyridin-5-yl)phenyl)-3-oxopiperazin-1-yl)-7-oxoheptyl)oxy)-1-oxoisoindolin-2-yl)piperidine-2,6-dione], at HPK1 protein [2], the IC50 was in the range of 10 to 100 nM. At HPK1 protein [2], `CCc1c[nH]c2ncc(-c3cccc(N4CCN(C(=O)CCCCCNc5ccc6c(c5)C(=O)N(C5CCC(=O)NC5=O)C6=O)CC4=O)c3)c(Cl)c12` (centres unmarked) [Example 19, 5-((6-(4-(3-(4-chloro-3-ethyl-1H-pyrrolo[2,3-b]pyridin-5-yl)phenyl)-3-oxopiperazin-1-yl)-6-oxohexyl)amino)-2-(2,6-dioxopiperidin-3-yl)isoindoline-1,3-dione] registered a concentration for half-maximal inhibition (IC50) of 10 to 100 nM. `CCc1c[nH]c2ncc(-c3cccc(N4CCN(C(=O)CCCOc5ccc6c(c5)C(=O)N(C5CCC(=O)NC5=O)C6)CC4=O)c3)c(Cl)c12` (centres unmarked) [Example 67] returned a concentration for half-maximal inhibition (IC50) against HPK1 protein [2] of 10 to 100 nM. For `CCc1c[nH]c2ncc(-c3cccc(N4CCN(C(=O)COc5ccc6c(c5)C(=O)N(C5CCC(=O)NC5=O)C6)CC4=O)c3)c(Cl)c12` (centres unmarked) [Example 66], on HPK1 protein [2], the IC50 was ≤ 10 nM. Turning to `CCc1c[nH]c2ncc(-c3cccc(N4CCN(C(=O)CCCCCCCOc5cccc6c5CN(C5CCC(=O)N(C)C5=O)C6=O)CC4=O)c3)c(Cl)c12` (centres unmarked) [Example 2, 3-(4-((8-(4-(3-(4-chloro-3-ethyl-1H-pyrrolo[2,3-b]pyridin-5-yl)phenyl)-3-oxopiperazin-1-yl)-8-oxooctyl)oxy)-1-oxoisoindolin-2-yl)-1-methylpiperidine-2,6-dione], on HPK1 protein [2], the IC50 lay in the range of 100 to 1000 nM.

One may read the Dmax as the greatest extent of degradation seen. A higher Dmax goes with a fuller loss of target. As a reminder, the IC50 is the concentration that gives 50% inhibition. A low value points to greater potency in that assay.
